Experimental data published in patent US20080262014A1, “Use of Camptothecin Derivatives for the Treatment of Proliferative Diseases in a Fixed Dosing Regimen” (priority 2004, published 2008).
“Also recorded” adds a separate entry of the source.

Legend:
[1] = Clinical pharmacokinetics (disposition) of oral gimatecan in phase I patients with refractory malignancies; format: in vivo
Procedure: The disposition of oral gimatecan is evaluated in patients with refractory malignancies administered on a daily schedule for 5, 10, or 15 consecutive days or a weekly schedule for 3 weeks of a 28 day cycle. The disposition of gimatecan using these four schedules are depicted in FIGS. 3 (a-d). Clinical pharmacokinetics is assessed on the first and last days of the first cycle of daily dosing. […] However, patients were dosed based on their body surface area. Patients who responded to gimatecan had taken 0.45 mg, 0.9 mg, 1.1 mg or 1.6 mg which made it difficult to pick an effective dose.

clinical = assay: clinical; parameters: species or system patients; settings: human, in vivo
From the text: The optimal dose and schedule of gimatecan stems mainly from the putative therapeutic window identified from the PK/PD analysis of completed phase I data. The target range of cumulative gimatecan cycle exposure (AUC 5,000-10,000 (ng)(hr)/mL) was selected because it produces partial responses and yet is below the exposure where grade III/IV neutropenia and thrombocytopenia adverse events became evident (FIG. 1). […] This may explain why toxicity could not be differentiated among the three schedules; all three schedules exceeded the putative effective daily exposure and were in a potentially toxic range. […] The flat dose is dosed every third day, or once every three days, or every 72 hours, or at one half-life to avoid potential accumulation. The starting doses are chosen to target a systemic exposure of 200-400 (ng)(hr)/mL (the “therapeutic window”) once every three days.

Structure (SMILES): CC[C@@]1(O)C(=O)OCc2c1cc1n(c2=O)Cc2c-1nc1ccccc1c2/C=N/OC(C)(C)C [gimatecan, 7-(t-butoxy)imino methyl camptothecin]
- body surface area as predictor of gimatecan clearance ([1]; 78 patients receiving four schedules): lack of correlation; also recorded: not a good predictor; also recorded: not predicted by body surface area
- half-life ([1]; human, in vivo, oral, estimated from 10 patients receiving the weekly schedule, read-out: terminal harmonic mean half-life (converted)): 86 h
- apparent oral clearance, dependence on dose ([1]; oral, four schedules): independent of dose
- drug accumulation ([1]; weekly and daily schedule): Drug accumulation is observed
- AUC at 1 day (clinical): 200 to 400 ng·h/mL
- AUC at 1 cycle (clinical; iv): 5000 to 10000 ng·h/mL
